Measured values: article PMC7400623, “Effect of lysine side chain length on histone lysine acetyltransferase catalysis” (Scientific Reports, 2020)

Columns and labels:
[1] = biological target: T1, MOF catalytic domain (Homo sapiens, UniProt Q9H7Z6); experiment: MALDI-TOF MS kinetics assay, MOF; assay type: biochemical; settings: for kcat^app / Km: MOF catalytic domain 570 nM (2 µM for unnatural analogs), peptide 1,050–0 µM, pH 7.4, 37 °C, MALDI-TOF MS, duplicates, value ± SD, SD; for kcat^app: AcCoA 100 µM (saturating), 50 mM HEPES, 0.1 mM EDTA, 0.01% TRITON-X; for Km: AcCoA 100 µM, read-out: Km^app; for kcat^app/Km^app: same kinetics conditions
T1 construct: Human MOF catalytic domain (residues 125–458 in pET19b); His-tag; made in house; host or cells: E. coli BL21(DE3)
T1 sequence (Q9H7Z6 125-458): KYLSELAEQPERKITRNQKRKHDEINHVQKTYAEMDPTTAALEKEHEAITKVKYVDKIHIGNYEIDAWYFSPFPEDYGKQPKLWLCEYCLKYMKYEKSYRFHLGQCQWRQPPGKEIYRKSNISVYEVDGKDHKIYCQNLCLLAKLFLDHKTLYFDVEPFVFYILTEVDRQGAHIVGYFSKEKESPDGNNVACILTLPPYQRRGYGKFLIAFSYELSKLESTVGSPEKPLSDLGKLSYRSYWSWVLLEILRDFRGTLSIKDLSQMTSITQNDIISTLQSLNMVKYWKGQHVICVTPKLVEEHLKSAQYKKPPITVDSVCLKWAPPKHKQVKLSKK
Text: Kinetic analysis of bi-substrate enzymes, such as KATs, is reckoned to be challenging and dependent on many factors. Firstly, given the nature of these enzymes, the binding of one of the two substrates directly influences the binding of the other (with a direct effect on the Michaelis–Menten parameter Km). […] Therefore, to obtain data that would allow us to directly compare the catalytic properties of the selected KATs towards our selection of histone peptides bearing lysine analogs with longer side chains, two strategies to standardize our kinetic evaluation were taken: i) all the experiments were carried out with the same saturating concentrations of AcCoA and ii) only KATs catalytic domains were employed in the study. […] In contrast, kcat values decreased substantially with an increase of the side chain length, both in the K14 and K9 peptide series, and for both PCAF and GCN5 (Table 1).
Histone peptides kinetics evaluation was carried out with a MALDI-TOF MS assay under steady-state conditions[57],[58]. Histone peptides (1,050–0 µM) were incubated with AcCoA (100 µM) and the reactions were started by the addition of the enzyme (MOF 570 nM, PCAF and GCN5 50 nM) in a final volume of 20 µL in kinetic buffer (50 mM HEPES, 0.1 mM EDTA, 0.01% TRITON-X, pH = 7.4). For histone peptides bearing unnatural lysine analogs, higher concentration of enzymes was used (MOF, PCAF and GCN5 2 µM). […] AcCoA stock solutions in milli-Q water were calibrated with a NanoDrop 2000 spectrophotometer (Thermo Scientific, Waltham, MA, USA), employing the characteristic molar extinction coefficient ε260nm = 16,400 M^−1 cm^−1. Reactions were incubated at 37 °C, shaken at 750 rpm and quenched with TFA 10% in milli-Q water at different time points, within linear production of acetylated peptides extrapolated from time-course plots. All reactions were aliquoted and mixed 1:2 with a solution of α-cyano-4-hydroxycinnamic acid (CHCCA) in 1:1 MQ and ACN (0.1% TFA) and loaded onto MTP 384 polished steel target to be analyzed by UltrafleXtreme-II tandem mass spectrometer (Bruker). The amount of acetylated peptide was calculated by integration of the product peak area and divided it by the amount of unacetylated peptide, taking in account all the ionic species, at any concentration points using the FlexAnalysis software. Kinetic values were extrapolated by fitting V0 values (µM of produced peptide per minutes) and histone peptide concentrations to the Michaelis–Menten equation using the GraphPad Prism 5 software. Kinetic experiments were carried out in duplicates and final values are reported as value ± SD.

[2] = biological target: T2, MOF (KAT8) (Homo sapiens, UniProt Q9H7Z6); experiment: MALDI-TOF MS enzymatic assay of MOF-catalyzed acetylation of histone peptides; assay type: biochemical; settings: 100 µM peptide, 300 µM AcCoA, pH 8.0, 37 °C; for acetylation (conversion to acetylated peptide) by MOF: after 3 h, 2 µM MOF, 50 mM Hepes, 0.1 mM EDTA, 1 mM DTT, MALDI-TOF MS
T2 construct: Human MOF catalytic domain (residues 125–458 in pET19b); His-tag; made in house; host or cells: E. coli BL21(DE3)
T2 sequence (Q9H7Z6 125-458): T1 sequence (Q9H7Z6 125-458)
Description: MALDI-TOF MS enzymatic assays were carried out to investigate KAT-catalyzed acetylation of synthetic histone peptides. The enzymatic activity of the recombinantly expressed human KATs was measured at different time points (2 µM KAT enzyme, 100 µM histone peptide, 300 µM AcCoA, buffer: 50 mM Hepes, 0.1 mM EDTA, 1 mM DTT, pH = 8.0, 37 °C, hereafter used as standard conditions) (Fig. 3b,c). […] It is noteworthy that diacetylation of histone peptides was not detected under our assay conditions, due to preacetylation of the secondary site on H3. […] As further control, H4 and H3 peptides containing stereochemically inverted D-lysine were synthesized.
The KAT enzymatic activity towards histone peptides was measured at different time points under standard conditions (2 µM KAT enzyme, 100 µM peptide, 300 µM AcCoA) in the reaction buffer (50 mM HEPES, 0.1 mM EDTA, 1 mM DTT, pH = 8.0). The reactions were carried out in a final volume of 50 µL and shaken up in a Thermomixer C at 750 rpm, at 37 °C. The reactions were quenched by the addition of TFA 10% in MilliQ water at different time points. All reactions were aliquoted and mixed 1:2 with a solution of α-Cyano-4-hydroxycinnamic acid (CHCCA) in 1:1 MQ and ACN (0.1% TFA) and loaded onto an MTP 384 polished steel target to be analyzed by a UltrafleXtreme-II tandem mass spectrometer (Bruker, Billerica, MA, USA).

Sequence | Km lower than that of H4hK16 ([1]; MOF) | kcat^app [1] [s⁻¹] | Km [1] [µM] | kcat^app/Km^app ([1]; MOF) [M⁻¹ s⁻¹] | acetylation (conversion to acetylated peptide) by MOF [2] [%] | time to full acetylation by MOF ([2]; standard conditions: 2 µM MOF) [min]
GGA h2K16 RHRKVLRDNIQ [H4h2K16, 15-mer histone H4 peptide with h2K at position 16] | fourfold lower | 0.001 ± 0.00017 | 82.2 ± 15 | 12 | 90 | 
GGA hK 16 RHRKVLRDNIQ [H4hK16, 15-mer histone H4 peptide with hLys at position 16] |  | 0.0045 ± 0.0017 | 344 ± 99 | 13 | 95 | 
GGA K16 RHRKVLRDNIQ [H4K16, reference compound] |  | 0.385 ± 0.0167 | 593 ± 86 | 648 |  | 30
